Publication PMC4700476, “Differential regulation by AMP and ADP of AMPK complexes containing different γ subunit isoforms” (Biochemical Journal, 2016)

Key:
[1] = test system: γ2-containing AMPK complexes in HEK-293 cells expressing FLAG–γ2; experiment: Activation of AMPK complexes in intact cells (anti-FLAG IP kinase assay and pThr172 blot); format: cell-based, human; details: γ2 complex; 60 min; phenformin 10 mM, berberine 300 μM, A23187 10 μM, A-769662 300 μM
Method: (§1) HEK-293 cells expressing tetracycline-inducible human γ1, γ2 and γ3 with N-terminal FLAG tags were obtained by inserting the appropriate DNA into cells carrying a Flp recombinase target site with co-transfection of DNA encoding Flp recombinase; expression of the γ subunits was induced by adding tetracycline (1 μg·ml^−1) to the medium for 48 h.
(§2) HEK-293 cells were grown in Dulbecco's modified Eagle's medium (DMEM) containing 4.5 g/l glucose, 10% (v/v) FBS, 100 units/ml penicillin, 100 μg/ml streptomycin, 200 μg/ml hygromycin and 15 μg/ml blasticidin. The medium was replaced with medium containing 1 g/l glucose, 16 h before the treatments described in the text.
(§3) Cell lysates were made using the rapid lysis procedure. Lysates containing stably expressed recombinant FLAG-tagged γ subunits were immunoprecipitated from HEK-293 cell lysates (90 μg of lysate protein) by incubation at 4°C for 2 h on a roller mixer with 7.5 μl of EZview Red anti-FLAG M2 affinity gel (Sigma–Aldrich). After extensive washing, the immunoprecipitates (IPs) were assayed for AMPK activity on an orbital shaker as described previously except that the AMARA peptide substrate was used in all assays apart from those shown in Figures 3 and 4. The SAMS peptide was used in the latter because, for reasons that remain unclear, the degree of allosteric activation is always greater using this substrate.
(§4) Figure 2 Activation of FLAG–γ1,–γ2 or–γ3 by various AMPK activators Cells expressing FLAG–γ1,–γ2 or–γ3 were incubated with DMSO (vehicle), phenformin (10 mM), berberine (300 μM), A23187 (10 μM) or A-769662 (300 μM) for 60 min, AMPK complexes were immunoprecipitated using anti-FLAG antibodies and were analysed by kinase assays (upper panel) and Western blotting (lower panel). […] The absolute activities (nmol/min/mg of lysate protein) in the DMSO controls were: 0.16±0.01 (γ1), 0.24±0.01 (γ2) and 0.053±0.001 (γ3; means ± S.E.M., n=3).

[2] = test system: γ3-containing AMPK complexes in HEK-293 cells expressing FLAG–γ3; experiment: as above; format: cell-based, human; details: for AMPK activation and Thr172 phosphorylation in intact cells: γ3 complex, 60 min, phenformin 10 mM, berberine 300 μM, A23187 10 μM, A-769662 300 μM
Method: as §1, §2, §3, §4

[3] = test system: γ1-containing AMPK complexes in HEK-293 cells expressing FLAG–γ1; experiment: as above; format: cell-based, human; details: γ1 complex; 60 min; phenformin 10 mM, berberine 300 μM, A23187 10 μM, A-769662 300 μM
Method: as §1, §2, §3, §4

[4] = test system: γ3-containing AMPK complexes in mouse skeletal muscle; design: method as in PMID 25695398; details: cited from earlier work
[5] = test system: γ1-containing AMPK complexes in mouse skeletal muscle; design: method as in PMID 25695398; details: cited from earlier work
AMPK = test system: AMPK; design: method as in PMID 24746562; details: AMPK not phosphorylated on Thr172; cited from earlier work
rat hepatocytes = test system: rat hepatocytes; design: method as in PMID 17855357; details: cited from earlier work

SMILES	AMPK activation and Thr172 phosphorylation in intact cells [1]	AMPK activation and Thr172 phosphorylation in intact cells [2]	AMPK activation and Thr172 phosphorylation in intact cells [3]	also measured
COc1ccc2cc3[n+](cc2c1OC)CCc1cc2c(cc1-3)OCO2 [berberine, Berberine chloride]	activated	activated	activated	
O=C(O)c1ccc2c3c1cccc3c(=O)n1c3ccccc3nc21 [STO-609]				effect on activation of γ3 complex by A23187 ([2]; results not shown): completely blocked
[H]/N=C(/N)N/C(=N/[H])NCCc1ccccc1 [phenformin]	activated	activated	activated	
CNc1ccc2oc(C[C@H]3O[C@@]4(CC[C@H]3C)O[C@H]([C@H](C)C(=O)c3ccc[nH]3)[C@H](C)C[C@H]4C)nc2c1C(=O)O [A23187]	activated	activated	activated	
NC(=O)c1ncn([C@@H]2O[C@H](CO)[C@@H](O)[C@H]2O)c1N [AICAR, 5-aminoimidazole-4-carboxamide riboside]				activation of γ3-containing complexes [4]: activated both isoforms; activation of γ1-containing complexes [5]: activated both isoforms
N#Cc1c(O)c2c(-c3ccc(-c4ccccc4O)cc3)csc2[nH]c1=O [A-769662]	only modest increases	only modest increases	did not significantly activate	allosteric activation of AMPK (AMPK): > 60 fold; increases in Thr172 phosphorylation (rat hepatocytes): negligible; phosphorylation of acetyl-CoA carboxylase (ACC) (rat hepatocytes): marked phosphorylation
